US20250215014A1, “KINASE INHIBITORS, PREPARATION METHODS AND USES THEREOF” (InventisBio Co., Ltd., priority 2022, published 2025)

Legend:
DGKz = DGKz (Homo sapiens (Human), UniProt Q13574); test: DGK ADP-Glo Kinase Assay (DGKz); type: biochemical; conditions: 5 nM DGKz, 15 uM ATP
Experimental: (§1) Luminescence was recorded using an Tecan SPARK microplate reader.

DGKa = DGKa (Homo sapiens (Human), UniProt P23743); test: DGK ADP-Glo Kinase Assay (DGKa); type: biochemical; conditions: 10 nM DGKa, 15 uM ATP
Experimental: as §1

Sequence of DGKz (Q13574 whole entry): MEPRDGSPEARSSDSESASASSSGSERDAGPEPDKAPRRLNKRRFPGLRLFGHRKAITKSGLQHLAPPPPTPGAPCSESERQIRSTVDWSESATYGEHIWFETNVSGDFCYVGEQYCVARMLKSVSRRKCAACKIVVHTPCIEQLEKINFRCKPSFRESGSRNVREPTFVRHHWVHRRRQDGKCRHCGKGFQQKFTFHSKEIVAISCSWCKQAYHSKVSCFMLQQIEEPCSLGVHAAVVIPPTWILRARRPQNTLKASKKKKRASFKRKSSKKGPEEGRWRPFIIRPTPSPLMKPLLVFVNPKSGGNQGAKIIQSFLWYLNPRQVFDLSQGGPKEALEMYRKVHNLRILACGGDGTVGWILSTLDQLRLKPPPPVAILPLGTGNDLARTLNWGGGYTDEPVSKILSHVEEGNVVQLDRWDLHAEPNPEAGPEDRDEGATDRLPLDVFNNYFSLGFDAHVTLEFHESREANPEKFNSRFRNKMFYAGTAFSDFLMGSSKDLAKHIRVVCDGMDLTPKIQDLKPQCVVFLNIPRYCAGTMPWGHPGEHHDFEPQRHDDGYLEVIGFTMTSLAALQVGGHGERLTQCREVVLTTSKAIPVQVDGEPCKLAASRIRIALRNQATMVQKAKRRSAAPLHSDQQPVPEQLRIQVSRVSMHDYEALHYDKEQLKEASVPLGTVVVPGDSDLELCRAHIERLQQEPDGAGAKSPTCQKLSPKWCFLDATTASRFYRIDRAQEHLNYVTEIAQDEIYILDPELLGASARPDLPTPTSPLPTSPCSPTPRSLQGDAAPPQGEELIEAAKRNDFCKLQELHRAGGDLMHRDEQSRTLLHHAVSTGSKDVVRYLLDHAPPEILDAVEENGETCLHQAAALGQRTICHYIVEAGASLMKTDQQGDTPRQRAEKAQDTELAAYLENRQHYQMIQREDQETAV
Sequence of DGKa (P23743 whole entry): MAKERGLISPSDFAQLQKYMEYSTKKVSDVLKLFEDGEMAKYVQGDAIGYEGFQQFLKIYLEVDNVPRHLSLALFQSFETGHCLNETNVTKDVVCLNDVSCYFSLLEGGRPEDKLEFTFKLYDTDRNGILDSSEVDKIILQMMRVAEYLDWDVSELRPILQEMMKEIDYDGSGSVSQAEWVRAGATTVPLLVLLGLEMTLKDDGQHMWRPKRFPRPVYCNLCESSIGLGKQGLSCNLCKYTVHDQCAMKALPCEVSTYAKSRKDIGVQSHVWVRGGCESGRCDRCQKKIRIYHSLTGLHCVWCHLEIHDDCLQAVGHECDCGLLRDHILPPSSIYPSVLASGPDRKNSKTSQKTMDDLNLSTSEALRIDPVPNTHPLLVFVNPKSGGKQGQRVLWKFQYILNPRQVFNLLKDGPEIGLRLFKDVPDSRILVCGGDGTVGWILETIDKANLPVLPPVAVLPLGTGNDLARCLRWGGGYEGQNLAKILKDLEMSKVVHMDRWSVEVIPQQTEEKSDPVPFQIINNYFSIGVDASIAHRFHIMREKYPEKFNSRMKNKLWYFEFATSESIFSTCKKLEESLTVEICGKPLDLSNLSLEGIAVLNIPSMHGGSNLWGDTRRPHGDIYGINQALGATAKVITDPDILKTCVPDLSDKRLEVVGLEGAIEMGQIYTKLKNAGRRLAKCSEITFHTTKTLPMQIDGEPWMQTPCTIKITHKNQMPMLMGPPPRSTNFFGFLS

Compound	IC50 (DGKz) [nM]	IC50 (DGKa) [nM]
CC[C@@H]1CN(c2nc3nncn3c3ccc(C#N)nc23)[C@@H](CC)CN1C(=O)Cc1ccc(C(F)(F)F)cc1 [Compound 85]	100 to 1000	< 100
CC[C@H]1CN(C(c2ccc(S(F)(F)(F)(F)F)cc2)C2CC2)[C@H](CC)CN1c1nc(=O)n(C)c2ccc(C#N)nc12 (single isomer, unassigned) [Compound 117]	100 to 1000	< 100
CC[C@H]1CN([C@@H](CC)c2ccc(C(F)(F)F)cc2)[C@H](CC)CN1c1nc2nncn2c2ccc(C#N)nc12 (single isomer, unassigned) [Compound 109]	< 100	< 100
Cn1c(=O)nc(N2CCCc3c(C#CC4CC4)cccc32)c2nc(C#N)ccc21 [Compound 42]	100 to 1000	< 100
CC[C@H]1CN([C@@H](CC)c2ccc(S(F)(F)(F)(F)F)cc2)[C@H](CC)CN1c1nc2nncn2c2ccc(C#N)nc12 (stereo in doubt) [Compound 86]	< 100	< 100
CC[C@@H]1CN(c2nc3nncn3c3ccc(C#N)nc23)[C@@H](C)CN1[C@@H](CC)c1ccc(S(F)(F)(F)(F)F)cc1 (stereo in doubt) [Compound 80]	< 100	< 100
CC[C@@H]1C[C@H](c2nc3cc(C)ccc3o2)CCN1c1nc(=O)n(C)c2cc(O[C@@H]3CCOC3)c(Cl)cc12 [Compound 92]	< 100	100 to 1000
Cn1c(=O)nc(N2CCCc3c(C#CC4CC4)cccc32)c2nc(C#N)ccc21 [Compound 39]	> 1000	< 100
CC[C@@H]1CN(c2nc3nncn3c3ccc(C#N)nc23)[C@@H](CC)CN1C(=O)Nc1ccc(C(F)(F)F)cc1 [Compound 95]	100 to 1000	< 100
CC[C@H]1CN([C@@H](CC)c2cccc(C(F)(F)F)c2)[C@H](CC)CN1c1nc2nncn2c2ccc(C#N)nc12 (stereo in doubt) [Compound 105]	< 100	< 100
CC[C@@H]1CN2c3c(c(=O)n(C)c4ccc(C#N)nc34)OC[C@@H]2CN1[C@@H](CC)c1ccc(C(F)(F)F)cc1 [Compound 121]	> 1000	< 100
CC[C@H]1CN([C@H](c2ccc(SC(F)(F)F)cc2)c2nc(C3CC3)cs2)[C@H](CC)CN1c1nc(=O)n(C)c2ccc(C#N)nc12 [Compound 57]	100 to 1000	< 100
CC[C@H]1CN(C(c2ccc(S(F)(F)(F)(F)F)cc2)C2CC2)[C@H](CC)CN1c1nc(=O)n(C)c2ccc(C#N)nc12 (single isomer, unassigned) [Compound 118]	100 to 1000	< 100
CC[C@H]1C[C@@H](c2nc3cc(C)ccc3o2)CCN1c1nc(=O)n(C)c2cc(O[C@@H]3CCOC3)c(Cl)cc12 [Compound 94]	> 1000	100 to 1000
CC[C@@H]1CN(c2nc(=O)n(C)c3ccc(C#N)nc23)[C@@H](C)CN1[C@H](CC)c1ccc(S(F)(F)(F)(F)F)cc1 (stereo in doubt) [Compound 61]	100 to 1000	100 to 1000
CC[C@@H]1CN2c3c(c(=O)n(C)c4ccc(C#N)nc34)OC[C@H]2CN1[C@@H](CC)c1ccc(C(F)(F)F)cc1 [Compound 107]	100 to 1000	< 100
CC[C@H]1CN([C@H](C)c2ccc(SC(F)(F)F)cc2)[C@H](CC)CN1c1nc2nncn2c2ccc(C#N)nc12 (stereo in doubt) [Compound 52]	100 to 1000	< 100
CC[C@H]1CN([C@@H](c2ccc(SC(F)(F)F)cc2)c2nc(C3CC3)cs2)[C@H](CC)CN1c1nc(=O)n(C)c2ccc(C#N)nc12 [Compound 58]	100 to 1000	< 100
CC[C@H]1CN([C@@H](CC)c2ccc(SC(F)(F)F)cc2)[C@H](CC)CN1c1nc2nncn2c2ccc(C#N)nc12 (single isomer, unassigned) [Compound 68]	100 to 1000	< 100
CC[C@H]1CN([C@@H](CC)c2nc(C3CC3)no2)[C@H](CC)CN1c1nc2nncn2c2ccc(C#N)nc12 [Compound 119]	< 100	< 100
